Experimental data from the supplement of paper PMC10307832.

Assays:
Assay in all cases: relative viability (nuclei count vs DMSO), 5 days (fraction); higher = more cells survive
Bortezomib + Lapatinib = compound: CC(C)C[C@H](NC(=O)[C@H](Cc1ccccc1)NC(=O)c1cnccn1)B(O)O [Bortezomib] + CS(=O)(=O)CCNCc1ccc(-c2ccc3ncnc(Nc4ccc(OCc5cccc(F)c5)c(Cl)c4)c3c2)o1 [Lapatinib] (partner 2 µM)
Outline: (§1)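 Nuclei were stained with Hoechst during a one-step fixation (final 0.05% Triton X-100, 1% formaldehyde, 1 ug/ml Hoechst) carried out 5 days after dosing, then counted on 4× images. The cells, lung cancer lines in 1536-well plates, had been dosed by pin tool the day after seeding with one drug alone or a fixed anchor-drug dose plus five library-drug doses (not always all listed) in √10 steps. Relative viability is the nuclei count in treated wells divided by that in vehicle wells, and each value is the median of duplicate plates.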

Bortezomib + Dasatinib = compound: CC(C)C[C@H](NC(=O)[C@H](Cc1ccccc1)NC(=O)c1cnccn1)B(O)O [Bortezomib] + Cc1nc(Nc2ncc(C(=O)Nc3c(C)cccc3Cl)s2)cc(N2CCN(CCO)CC2)n1 [Dasatinib] (partner 0.075 µM)
Outline: as §1

[1] = compound: CC1=CC(=NN1)NC2=CC(=NC(=N2)/C=C/C3=CC=CC=C3)N4CCN(CC4)C + O=C(CCCCCCC(=O)Nc1ccccc1)NO [Vorinostat] (partner 1 µM)
Outline: as §1

Obatoclax + Lapatinib = compound: COC1=CC(c2cc3ccccc3[nH]2)=N/C1=C\c1[nH]c(C)cc1C [Obatoclax] + CS(=O)(=O)CCNCc1ccc(-c2ccc3ncnc(Nc4ccc(OCc5cccc(F)c5)c(Cl)c4)c3c2)o1 [Lapatinib] (partner 2 µM)
Outline: as §1

## NCI-H1355
Bortezomib + Lapatinib; first compound 0.0002 µM
  relative viability: 0.948
Bortezomib + Lapatinib; first compound 0.000632 µM
  relative viability: 0.906
Bortezomib + Lapatinib; first compound 0.002 µM
  relative viability: 1.2
Bortezomib + Lapatinib; first compound 0.006325 µM
  relative viability: 0.6
Bortezomib + Lapatinib; first compound 0.02 µM
  relative viability: 0.134
Bortezomib + Dasatinib; first compound 0.0002 µM
  relative viability: 0.69
Bortezomib + Dasatinib; first compound 0.000632 µM
  relative viability: 0.753
Bortezomib + Dasatinib; first compound 0.002 µM
  relative viability: 0.813
Bortezomib + Dasatinib; first compound 0.006325 µM
  relative viability: 0.18
Bortezomib + Dasatinib; first compound 0.02 µM
  relative viability: 0.156
[1]; first compound 0.08 µM
  relative viability: 0.639
[1]; first compound 0.253 µM
  relative viability: 0.599
[1]; first compound 0.8 µM
  relative viability: 0.622
[1]; first compound 2.53 µM
  relative viability: 0.273
[1]; first compound 8 µM
  relative viability: 0.104
Obatoclax + Lapatinib; first compound 0.01 µM
  relative viability: 1.06
Obatoclax + Lapatinib; first compound 0.03162 µM
  relative viability: 0.886
Obatoclax + Lapatinib; first compound 0.1 µM
  relative viability: 0.838
Obatoclax + Lapatinib; first compound 0.3162 µM
  relative viability: 0.862
Obatoclax + Lapatinib; first compound 1 µM
  relative viability: 0.921

## COR-L23
Bortezomib + Lapatinib; first compound 0.0002 µM
  relative viability: 0.814
Bortezomib + Lapatinib; first compound 0.000632 µM
  relative viability: 1.1
Bortezomib + Lapatinib; first compound 0.002 µM
  relative viability: 0.771
Bortezomib + Lapatinib; first compound 0.006325 µM
  relative viability: 0.0607
Bortezomib + Lapatinib; first compound 0.02 µM
  relative viability: 0.0542
Bortezomib + Dasatinib; first compound 0.0002 µM
  relative viability: 0.461
Bortezomib + Dasatinib; first compound 0.000632 µM
  relative viability: 0.459
Bortezomib + Dasatinib; first compound 0.002 µM
  relative viability: 0.485
Bortezomib + Dasatinib; first compound 0.006325 µM
  relative viability: 0.045
Bortezomib + Dasatinib; first compound 0.02 µM
  relative viability: 0.054
[1]; first compound 0.08 µM
  relative viability: 0.417
[1]; first compound 0.253 µM
  relative viability: 0.446
[1]; first compound 0.8 µM
  relative viability: 0.195
[1]; first compound 2.53 µM
  relative viability: 0.0754
[1]; first compound 8 µM
  relative viability: 0.087
Obatoclax + Lapatinib; first compound 0.01 µM
  relative viability: 0.954
Obatoclax + Lapatinib; first compound 0.03162 µM
  relative viability: 0.957
Obatoclax + Lapatinib; first compound 0.1 µM
  relative viability: 0.714
Obatoclax + Lapatinib; first compound 0.3162 µM
  relative viability: 0.254
Obatoclax + Lapatinib; first compound 1 µM
  relative viability: 0.199

## NCI-H2023
Bortezomib + Lapatinib; first compound 0.0002 µM
  relative viability: 0.521
Bortezomib + Lapatinib; first compound 0.000632 µM
  relative viability: 0.822
Bortezomib + Lapatinib; first compound 0.002 µM
  relative viability: 0.773
Bortezomib + Lapatinib; first compound 0.006325 µM
  relative viability: 0.144
Bortezomib + Lapatinib; first compound 0.02 µM
  relative viability: 0.0649
Bortezomib + Dasatinib; first compound 0.0002 µM
  relative viability: 0.59
Bortezomib + Dasatinib; first compound 0.000632 µM
  relative viability: 0.556
Bortezomib + Dasatinib; first compound 0.002 µM
  relative viability: 0.558
Bortezomib + Dasatinib; first compound 0.006325 µM
  relative viability: 0.124
Bortezomib + Dasatinib; first compound 0.02 µM
  relative viability: 0.0683
[1]; first compound 0.08 µM
  relative viability: 0.586
[1]; first compound 0.253 µM
  relative viability: 0.781
[1]; first compound 0.8 µM
  relative viability: 0.319
[1]; first compound 2.53 µM
  relative viability: 0.0637
[1]; first compound 8 µM
  relative viability: 0.0403
Obatoclax + Lapatinib; first compound 0.01 µM
  relative viability: 1.08
Obatoclax + Lapatinib; first compound 0.03162 µM
  relative viability: 0.755
Obatoclax + Lapatinib; first compound 0.1 µM
  relative viability: 0.761
Obatoclax + Lapatinib; first compound 0.3162 µM
  relative viability: 0.622
Obatoclax + Lapatinib; first compound 1 µM
  relative viability: 0.122

## A-427
Bortezomib + Lapatinib; first compound 0.0002 µM
  relative viability: 1.05
Bortezomib + Lapatinib; first compound 0.000632 µM
  relative viability: 0.975
Bortezomib + Lapatinib; first compound 0.002 µM
  relative viability: 1.11
Bortezomib + Lapatinib; first compound 0.006325 µM
  relative viability: 1.02
Bortezomib + Lapatinib; first compound 0.02 µM
  relative viability: 0.19
Bortezomib + Dasatinib; first compound 0.0002 µM
  relative viability: 0.611
Bortezomib + Dasatinib; first compound 0.000632 µM
  relative viability: 0.746
Bortezomib + Dasatinib; first compound 0.002 µM
  relative viability: 0.716
Bortezomib + Dasatinib; first compound 0.006325 µM
  relative viability: 0.408
Bortezomib + Dasatinib; first compound 0.02 µM
  relative viability: 0.104
[1]; first compound 0.08 µM
  relative viability: 0.943
[1]; first compound 0.253 µM
  relative viability: 0.904
[1]; first compound 0.8 µM
  relative viability: 0.822
[1]; first compound 2.53 µM
  relative viability: 0.334
[1]; first compound 8 µM
  relative viability: 0.212
Obatoclax + Lapatinib; first compound 0.01 µM
  relative viability: 1.08
Obatoclax + Lapatinib; first compound 0.03162 µM
  relative viability: 0.884
Obatoclax + Lapatinib; first compound 0.1 µM
  relative viability: 1.03
Obatoclax + Lapatinib; first compound 0.3162 µM
  relative viability: 1.09
Obatoclax + Lapatinib; first compound 1 µM
  relative viability: 0.992

## UMC-11
Bortezomib + Lapatinib; first compound 0.0002 µM
  relative viability: 0.813
Bortezomib + Lapatinib; first compound 0.000632 µM
  relative viability: 0.846
Bortezomib + Lapatinib; first compound 0.002 µM
  relative viability: 0.837
Bortezomib + Lapatinib; first compound 0.006325 µM
  relative viability: 0.375
Bortezomib + Lapatinib; first compound 0.02 µM
  relative viability: 0.149
Bortezomib + Dasatinib; first compound 0.0002 µM
  relative viability: 0.389
Bortezomib + Dasatinib; first compound 0.000632 µM
  relative viability: 0.491
Bortezomib + Dasatinib; first compound 0.002 µM
  relative viability: 0.439
Bortezomib + Dasatinib; first compound 0.006325 µM
  relative viability: 0.278
Bortezomib + Dasatinib; first compound 0.02 µM
  relative viability: 0.171
[1]; first compound 0.08 µM
  relative viability: 0.371
[1]; first compound 0.253 µM
  relative viability: 0.363
[1]; first compound 0.8 µM
  relative viability: 0.201
[1]; first compound 2.53 µM
  relative viability: 0.117
[1]; first compound 8 µM
  relative viability: 0.0745
Obatoclax + Lapatinib; first compound 0.01 µM
  relative viability: 1.06
Obatoclax + Lapatinib; first compound 0.03162 µM
  relative viability: 1.04
Obatoclax + Lapatinib; first compound 0.1 µM
  relative viability: 0.973
Obatoclax + Lapatinib; first compound 0.3162 µM
  relative viability: 0.613
Obatoclax + Lapatinib; first compound 1 µM
  relative viability: 0.346

## NCI-H596
Bortezomib + Lapatinib; first compound 0.0002 µM
  relative viability: 0.947
Bortezomib + Lapatinib; first compound 0.000632 µM
  relative viability: 1
Bortezomib + Lapatinib; first compound 0.002 µM
  relative viability: 0.99
Bortezomib + Lapatinib; first compound 0.006325 µM
  relative viability: 0.245
Bortezomib + Lapatinib; first compound 0.02 µM
  relative viability: 0.264
Bortezomib + Dasatinib; first compound 0.0002 µM
  relative viability: 0.488
Bortezomib + Dasatinib; first compound 0.000632 µM
  relative viability: 0.519
Bortezomib + Dasatinib; first compound 0.002 µM
  relative viability: 0.596
Bortezomib + Dasatinib; first compound 0.006325 µM
  relative viability: 0.2
Bortezomib + Dasatinib; first compound 0.02 µM
  relative viability: 0.184
[1]; first compound 0.08 µM
  relative viability: 0.557
[1]; first compound 0.253 µM
  relative viability: 0.633
[1]; first compound 0.8 µM
  relative viability: 0.577
[1]; first compound 2.53 µM
  relative viability: 0.42
[1]; first compound 8 µM
  relative viability: 0.139
Obatoclax + Lapatinib; first compound 0.01 µM
  relative viability: 0.941
Obatoclax + Lapatinib; first compound 0.03162 µM
  relative viability: 0.951
Obatoclax + Lapatinib; first compound 0.1 µM
  relative viability: 0.827
Obatoclax + Lapatinib; first compound 0.3162 µM
  relative viability: 0.643
Obatoclax + Lapatinib; first compound 1 µM
  relative viability: 0.503

## LU99A
Bortezomib + Lapatinib; first compound 0.0002 µM
  relative viability: 0.939
Bortezomib + Lapatinib; first compound 0.002 µM
  relative viability: 1.11
Bortezomib + Lapatinib; first compound 0.006325 µM
  relative viability: 0.811
Bortezomib + Lapatinib; first compound 0.02 µM
  relative viability: 0.171
Bortezomib + Dasatinib; first compound 0.0002 µM
  relative viability: 0.521
Bortezomib + Dasatinib; first compound 0.000632 µM
  relative viability: 0.381
Bortezomib + Dasatinib; first compound 0.002 µM
  relative viability: 0.655
Bortezomib + Dasatinib; first compound 0.006325 µM
  relative viability: 0.433
Bortezomib + Dasatinib; first compound 0.02 µM
  relative viability: 0.174
[1]; first compound 0.08 µM
  relative viability: 0.481
[1]; first compound 0.253 µM
  relative viability: 0.434
[1]; first compound 0.8 µM
  relative viability: 0.425
[1]; first compound 2.53 µM
  relative viability: 0.182
[1]; first compound 8 µM
  relative viability: 0.0957
Obatoclax + Lapatinib; first compound 0.01 µM
  relative viability: 0.997
Obatoclax + Lapatinib; first compound 0.03162 µM
  relative viability: 0.922
Obatoclax + Lapatinib; first compound 0.1 µM
  relative viability: 0.914
Obatoclax + Lapatinib; first compound 0.3162 µM
  relative viability: 0.255
Obatoclax + Lapatinib; first compound 1 µM
  relative viability: 0.196

## NCI-H2009
Bortezomib + Lapatinib; first compound 0.0002 µM
  relative viability: 0.583
Bortezomib + Lapatinib; first compound 0.000632 µM
  relative viability: 0.812
Bortezomib + Lapatinib; first compound 0.002 µM
  relative viability: 0.968
Bortezomib + Lapatinib; first compound 0.006325 µM
  relative viability: 0.0615
Bortezomib + Lapatinib; first compound 0.02 µM
  relative viability: 0.0663
Bortezomib + Dasatinib; first compound 0.0002 µM
  relative viability: 0.291
Bortezomib + Dasatinib; first compound 0.000632 µM
  relative viability: 0.254
Bortezomib + Dasatinib; first compound 0.002 µM
  relative viability: 0.244
Bortezomib + Dasatinib; first compound 0.006325 µM
  relative viability: 0.0687
Bortezomib + Dasatinib; first compound 0.02 µM
  relative viability: 0.0717
[1]; first compound 0.08 µM
  relative viability: 0.751
[1]; first compound 0.253 µM
  relative viability: 0.699
[1]; first compound 0.8 µM
  relative viability: 0.712
[1]; first compound 2.53 µM
  relative viability: 0.218
[1]; first compound 8 µM
  relative viability: 0.121
Obatoclax + Lapatinib; first compound 0.01 µM
  relative viability: 0.92
Obatoclax + Lapatinib; first compound 0.03162 µM
  relative viability: 1
Obatoclax + Lapatinib; first compound 0.1 µM
  relative viability: 0.447
Obatoclax + Lapatinib; first compound 0.3162 µM
  relative viability: 0.234
Obatoclax + Lapatinib; first compound 1 µM
  relative viability: 0.222
